Patent publication US20140045746A1 (Merck Sharp & Dohme Corp., priority 2012, published 2014)

Legend:
hGPR40 [1] = target: T1, hGPR40 (Homo sapiens, UniProt O14842); assay: GPR40 Inositol Phosphate Turnover (IP1) Assay; type: cell-based; design: expressed in transfected cells; host or cells: HEK cells stably expressing the aequorin reporter; settings: HEK cells stably expressing human GPR40; 0% serum; read-out: hGPR40 IP1 EC50 (0% serum)
hGPR40 [2] = target: T1, hGPR40; assay: GPR40 FLIPR assay (agonist-induced calcium mobilization); type: cell-based; design: expressed in transfected cells; host or cells: CHO cells stably expressing NFAT BLA (beta-lactamase); settings: GPR40/CHO NFAT BLA cells;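 further: calcium mobilization in the cells read as fluorescence of fluo-4 AM loaded cells on FLIPR after compound addition, cells preloaded with dye 100 min at room temperature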
Method: Human and mouse GPR40 stable cell-lines were generated in CHO cells stably expressing NFAT BLA (Beta-lactamase). […] The expression plasmids were transfected using lipofectamine (Life Technologies) following manufacturer's instructions. Stable cell-lines were generated following drug selection.
FLIPR (Fluorimetric Imaging Plate Reader, Molecular Devices) assays were performed to measure agonist-induced calcium mobilization of the stable clones. For the FLIPR assay, one day before assay, GPR40/CHO NFAT BLA cells were seeded into black-wall-clear-bottom 384-well plates (Costar) at 1.4×10e4 cells/20 μL medium/well. The cells were incubated with 20 μl/well of the assay buffer (HBSS, 0.1% BSA, 20 mM HEPES, 2.5 mM probenecid, pH 7.4) containing 8 μM fluo-4, AM, 0.08% pluronic acid at room temperature for 100 minutes. Fluorescence output was measured using FLIPR. Compounds were dissolved in DMSO and diluted to desired concentrations with assay buffer. 13.3 μL/well of compound solution was added.

T1 sequence (O14842 whole entry): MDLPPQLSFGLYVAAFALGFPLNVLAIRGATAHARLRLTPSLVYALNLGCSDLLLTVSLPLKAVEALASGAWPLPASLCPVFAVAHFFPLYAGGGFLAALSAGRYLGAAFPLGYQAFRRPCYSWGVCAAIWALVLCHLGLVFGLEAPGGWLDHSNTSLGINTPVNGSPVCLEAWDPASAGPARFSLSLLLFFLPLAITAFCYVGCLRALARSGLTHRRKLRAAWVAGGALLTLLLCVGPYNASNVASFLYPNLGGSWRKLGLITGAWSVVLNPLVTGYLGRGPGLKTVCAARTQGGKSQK

Structure (SMILES)	EC50 (hGPR40 [1])	EC50 (hGPR40 [2])
Cc1cc(OCCC2CC(F)(F)C2)cc(C)c1-c1ccc(F)c(COc2cc3c(cn2)[C@H]2[C@@H](C3)[C@@H]2C(=O)O)c1 [Compound 16-9, (5aR,6S,6aS)-3-((4′-(2-(3,3-difluorocyclobutyl)ethoxy)-4-fluoro-2′,6′-dimethyl-[1,1′-biphenyl]-3-yl)methoxy)-5,5a,6,6a-tetrahydro-cyclopropa[4,5] cyclopenta[1,2-c] pyridine-6-carboxylic acid]	45 nM	19 nM
Cc1cc(OCCC2CC(F)(F)C2)cc(C)c1-c1cccc(COc2cc3c(cn2)[C@H]2[C@@H](C3)[C@@H]2C(=O)O)c1 [Compound 16-10, (5aR,6S,6aS)-3-((4′-(2-(3,3-difluorocyclobutyl)ethoxy)-2′,6′-dimethyl-[1,1′-biphenyl]-3-yl)methoxy)-5,5a, 6,6a-tetrahydro-cyclopropa[4,5] cyclopenta[1,2-c] pyridine-6-carboxylic acid]	57 nM	15 nM
CO/N=C(\C)CCCOc1cc(C)c(-c2cccc(COc3cc4c(cn3)[C@H]3[C@@H](C4)[C@@H]3C(=O)O)c2)c(C)c1 [Compound 17-5, (5aR,6S,6aS)-3-((4′-(((E)-4-(methoxyimino)pentyl)oxy)-2′,6′-dimethyl-[1,1′-biphenyl]-3-yl)methoxy)-5,5a,6,6a-tetrahydrocyclopropa[4,5]cyclopenta[1,2-c]pyridine-6-carboxylic acid]	98 nM	13 nM
CO/N=C(\C)CCCOc1ccc(-c2cccc(COc3cc4c(cn3)[C@H]3[C@@H](C4)[C@@H]3C(=O)O)c2)c(C)c1 [Compound 17-6, (5aR,6S,6aS)-3-((4′-(((E)-4-(methoxyimino)pentyl)oxy)-2′-methyl-[1,1′-biphenyl]-3-yl)methoxy)-5,5a,6,6a-tetrahydro-cyclopropa [4,5]cyclopenta [1,2-c]pyridine-6-carboxylic acid]	29 nM	13 nM
Cc1cc(OCCCN2CC(F)(F)C2)cc(C)c1-c1cccc(COc2cc3c(cn2)[C@H]2[C@@H](C3)[C@@H]2C(=O)O)c1 [Compound 18-4, (5aR,6S,6aS)-3-((4′-(3-(3,3-difluoroazetidin-1-yl)propoxy)-2′,6′-dimethyl-[1,1′-biphenyl]-3-yl)methoxy)-5,5a,6,6a-tetrahydrocyclopropa[4,5]cyclopenta[1,2-c]pyridine-6-carboxylic acid]	26 nM	16 nM
Cc1cc(CCC(C)(C)O)cc(C)c1-c1ccc(F)c(COc2cc3c(cn2)[C@H]2[C@@H](C3)[C@@H]2C(=O)O)c1 [Compound 19-6, (5aR,6S,6aS)-3-((4-fluoro-4′-(3-hydroxy-3-methylbutyl)-2′,6′-dimethyl-[1,1′-biphenyl]-3-yl)methoxy)-5,5a,6,6a-tetrahydrocyclopropa[4,5]cyclopenta[1,2-c]pyridine-6-carboxylic acid]	4 nM	20 nM
Cc1cc(CCCCS(C)(=O)=O)cc(C)c1-c1ccc(F)c(COc2cc3c(cn2)[C@H]2[C@@H](C3)[C@@H]2C(=O)O)c1 [Compound 19-16, (5aR,6S,6aS)-3-((4-fluoro-2′,6′-dimethyl-4′-(4-(methylsulfonyl)butyl)-[1,1′-biphenyl]-3-yl)methoxy)-5,5a,6,6a-tetrahydrocyclopropa[4,5]cyclopenta[1,2-c]pyridine-6-carboxylic acid]	7.3 nM	160 nM
Cc1cc(CCCC(C)(C)O)cc(C)c1-c1ccc(F)c(COc2cc3c(cn2)[C@H]2[C@@H](C3)[C@@H]2C(=O)O)c1 [Compound 19-19, (5aR,6S,6aS)-3-((4-fluoro-4′-(4-hydroxy-4-methylpentyl)-2′,6′-dimethyl-[1,1′-biphenyl]-3-yl)methoxy)-5,5a,6,6a-tetrahydrocyclopropa[4,5]cyclopenta[1,2-c]pyridine-6-carboxylic acid]	5.5 nM	36 nM
CC(C)(O)CCOc1cc(C(F)(F)F)c(-c2ccc(F)c(COc3cc4c(cn3)C3C(C4)C3C(=O)O)c2)cn1 (stereo not shown) [Compound 20-5, 3-((2-fluoro-5-(6-(3-hydroxy-3-methylbutoxy)-4-(trifluoromethyl)pyridin-3-yl)benzyl)oxy)-5,5a,6,6a-tetrahydrocyclopropa[4,5]cyclopenta[1,2-c]pyridine-6-carboxylic acid]	15 nM	76 nM
CC(C)(O)CCOc1cc(C(F)(F)F)c(-c2cccc(COc3cc4c(cn3)[C@H]3[C@@H](C4)[C@@H]3C(=O)O)c2)cn1 [Compound 20-6, (5aR,6S,6aS)-3-((3-(6-(3-hydroxy-3-methylbutoxy)-4-(trifluoromethyl)pyridin-3-yl)benzyl)oxy)-5,5a,6,6a-tetrahydro-cyclopropa[4,5] cyclopenta[1,2-c] pyridine-6-carboxylic acid]	4.9 nM	19 nM
Cc1nc(OC2CCC(C(C)(C)O)CC2)ccc1-c1ccc(F)c(COc2cc3c(cn2)[C@H]2[C@@H](C3)[C@@H]2C(=O)O)c1 (stereo partly drawn) [Compound 20-8, (5aR,6S,6aS)-3-((2-fluoro-5-(6-((4-(2-hydroxypropan-2-yl)cyclohexyl)oxy)-2-methyl-pyridin-3-yl)benzyl)oxy)-5,5a, 6,6a-tetrahydro-cyclopropa[4,5] cyclopenta[1,2-c] pyridine-6-carboxylic acid]	175 nM	99 nM
CC(C)(O)CCCOc1cc(C(F)(F)F)c(-c2ccc(F)c(COc3cc4c(cn3)[C@H]3[C@@H](C4)[C@@H]3C(=O)O)c2)cn1 [Compound 21-7, 3-((2-fluoro-5-(6-((4-hydroxy-4-methylpentyl)oxy)-4-(trifluoromethyl)pyridin-3-yl)benzyl)oxy)-5,5a,6,6a-tetrahydrocyclopropa[4,5]cyclopenta[1,2-c]pyridine-6-carboxylic acid]	6.2 nM	11 nM
CC(C)(O)CCCOc1cc(C(F)(F)F)c(-c2cccc(COc3cc4c(cn3)[C@H]3[C@@H](C4)[C@@H]3C(=O)O)c2)cn1 [Compound 21-8, (5aR,6S,6aS)-3-((3-(6-((4-hydroxy-4-methylpentyl)-oxy)-4-(trifluoromethyl)-pyridin-3-yl)benzyl)oxy)-5,5a,6,6a-tetrahydrocyclo-propa[4,5]cyclopenta [1,2-c]pyridine-6-carboxylic acid]	6.2 nM	15 nM
Cc1cccc(C)c1-c1ccc(F)c(COc2cc3c(cn2)[C@H]2[C@@H](C3)[C@@H]2C(=O)O)c1 [Compound 22-2]	26 nM	49 nM
O=C(O)C1C2Cc3cc(OCc4cc(-c5ccccc5C(F)(F)F)ccc4F)ncc3C21 (stereo not shown) [Compound 22-3, 3-((4-fluoro-2′-(trifluoromethyl)-[1,1′-biphenyl]-3-yl)methoxy)-5,5a,6,6a-tetrahydrocyclo-propa[4,5]cyclopenta[1,2-c]pyridine-6-carboxylic acid]	35 nM	36 nM
O=C(O)C1C2Cc3cc(OCc4cc(-c5ccc(C(F)(F)F)cc5)ccc4F)ncc3C21 (stereo not shown) [Compound 22-4, 3-((4-fluoro-4′-(trifluoromethyl)-[1,1′-biphenyl]-3-yl)methoxy)-5,5a,6,6a-tetrahydrocyclo-propa[4,5]cyclopenta[1,2-c]pyridine-6-carboxylic acid]	240 nM	54 nM
O=C(O)C1C2Cc3cc(OCc4cc(-c5cccc(C(F)(F)F)c5)ccc4F)ncc3C21 (stereo not shown) [Compound 22-5, 3-((4-fluoro-3′-(trifluoromethyl)-[1,1′-biphenyl]-3-yl)methoxy)-5,5a,6,6a-tetrahydrocyclo-propa[4,5]cyclopenta[1,2-c]pyridine-6-carboxylic acid]	310 nM	47 nM
O=C(O)C1C2Cc3cc(OCc4cc(-c5c(F)cccc5C(F)(F)F)ccc4F)ncc3C21 (stereo not shown) [Compound 22-6, 3-((2′,4-difluoro-6′-(trifluoromethyl)-[1,1′-biphenyl]-3-yl)methoxy)-5,5a,6,6a-tetrahydrocyclo-propa[4,5]cyclopenta[1,2-c]pyridine-6-carboxylic acid]	100 nM	87 nM
O=C(O)C1C2Cc3cc(OCc4cc(-c5cc(Cl)cc(C(F)(F)F)c5)ccc4F)ncc3C21 (stereo not shown) [Compound 22-7, 3-((3′-chloro-4-fluoro-5′-(trifluoromethyl)-[1,1′-biphenyl]-3-yl)methoxy)-5,5a,6,6a-tetrahydrocyclo-propa[4,5]cyclopenta[1,2-c]pyridine-6-carboxylic acid]	400 nM	67 nM
O=C(O)C1C2Cc3cc(OCc4cc(-c5cccnc5C(F)(F)F)ccc4F)ncc3C21 (stereo not shown) [Compound 22-8, 3-((2-fluoro-5-(2-(trifluoromethyl)pyridin-3-yl)benzyl)oxy)-5,5a,6,6a-tetrahydrocyclopenta[4,5] cyclopenta[1,2-c]pyridine-6-carboxylic acid]	75 nM	48 nM
O=C(O)C1C2Cc3cc(OCc4cc(-c5ncccc5C(F)(F)F)ccc4F)ncc3C21 (stereo not shown) [Compound 22-9, 3-((2-fluoro-5-(3-(trifluoromethyl)pyridin-2-yl)benzyl)oxy)-5,5a,6,6a-tetrahydrocyclopropa[4,5] cyclopenta[1,2-c]pyridine-6-carboxylic acid]	850 nM	95 nM

Continued, values first:

EC50 (hGPR40 [1])	EC50 (hGPR40 [2])	Structure (SMILES)
4.8 nM	26 nM	Cc1cc(OCCCS(C)(=O)=O)ncc1-c1ccc(F)c(COc2cc3c(cn2)[C@H]2[C@@H](C3)[C@@H]2C(=O)O)c1 [Compound 23-8, 4-{2-Fluoro-5-[6-(3-methanesulfonyl-propoxy)-4-methyl-pyridin-3-yl]-benzyloxy}-1,1a,6,6a-tetrahydro-3-aza-cyclopropa[a]indene-1-carboxylic acid]
15 nM	46 nM	Cc1nc(OCCCS(C)(=O)=O)ccc1-c1ccc(F)c(COc2cc3c(cn2)[C@H]2[C@@H](C3)[C@@H]2C(=O)O)c1 [Compound 23-10, (5aR,6S,6aS)-3-((2-fluoro-5-(2-methyl-6-(3-(methylsulfonyl)propoxy)pyridin-3-yl)benzyl)oxy)-5,5a,6,6a-tetrahydro-cyclopropa[4,5] cyclopenta[1,2-c] pyridine-6-carboxylic acid]
